Experimental data: US9434711B2 (Janssen Pharmaceutica, NV, priority 2007, dated 2016)

Biological target: canine TRPM8 (Canis lupus familiaris, UniProt Q1A7N1)
Test: In Vitro Canine TRPM8 Functional Assay (Ca2+ fluorescence, icilin activation)
Assay type: cell-based
Settings: for IC50: HEK293 cells stably expressing canine TRPM8, icilin activation, eight-point dose-response, read-out: IC50; for inhibition at 0.2 µM / % Inh @ 0.2 (μM): compound at 0.2 μM, canine TRPM8, icilin activation; for inhibition at 0.2 µM: read-out: % Inh @ 0.2
Procedure, shortened: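 Canine TRPM8 stably expressed in HEK293; compound added 5 min before icilin challenge (~80% max response), with fluorescent Ca2+ signal tracked throughout.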

Sequence of canine TRPM8 (Q1A7N1 1-1104): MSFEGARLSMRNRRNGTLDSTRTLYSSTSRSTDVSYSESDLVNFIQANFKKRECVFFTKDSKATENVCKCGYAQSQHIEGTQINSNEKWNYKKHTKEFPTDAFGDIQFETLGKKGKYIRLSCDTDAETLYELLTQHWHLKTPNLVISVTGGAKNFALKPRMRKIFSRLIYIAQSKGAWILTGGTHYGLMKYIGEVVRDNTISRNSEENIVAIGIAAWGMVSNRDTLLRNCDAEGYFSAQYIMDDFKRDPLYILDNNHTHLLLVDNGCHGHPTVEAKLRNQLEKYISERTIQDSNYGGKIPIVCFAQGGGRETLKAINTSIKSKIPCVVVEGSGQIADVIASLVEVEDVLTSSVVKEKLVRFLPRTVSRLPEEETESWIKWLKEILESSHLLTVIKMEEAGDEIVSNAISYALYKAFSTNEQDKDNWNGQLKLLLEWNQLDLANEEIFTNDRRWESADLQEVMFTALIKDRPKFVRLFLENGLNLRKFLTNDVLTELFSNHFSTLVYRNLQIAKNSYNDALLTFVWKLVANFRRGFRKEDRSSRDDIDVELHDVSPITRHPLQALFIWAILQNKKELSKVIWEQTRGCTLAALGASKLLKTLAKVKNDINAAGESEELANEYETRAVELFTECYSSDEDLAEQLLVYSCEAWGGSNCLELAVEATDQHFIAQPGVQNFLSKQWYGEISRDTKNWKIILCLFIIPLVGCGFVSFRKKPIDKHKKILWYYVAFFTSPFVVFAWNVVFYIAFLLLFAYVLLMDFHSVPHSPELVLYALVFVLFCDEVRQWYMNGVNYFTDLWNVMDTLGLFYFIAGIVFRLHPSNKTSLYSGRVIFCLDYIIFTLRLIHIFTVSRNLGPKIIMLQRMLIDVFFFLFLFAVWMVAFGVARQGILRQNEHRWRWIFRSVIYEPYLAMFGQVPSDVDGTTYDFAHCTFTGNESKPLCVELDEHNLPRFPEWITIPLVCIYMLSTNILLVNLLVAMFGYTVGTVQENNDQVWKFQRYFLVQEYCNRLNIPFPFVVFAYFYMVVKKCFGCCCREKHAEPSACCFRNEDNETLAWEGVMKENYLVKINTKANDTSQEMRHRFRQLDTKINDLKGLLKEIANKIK

Row | SMILES | IC50 [µM] | inhibition at 0.2 µM [%] | % Inh @ 0.2 (μM) [%]
1 | O=S(=O)(c1cnccc1Cl)N(Cc1ccc(F)c(C(F)(F)F)c1)c1sc2ccccc2c1Cl [Compound 338, N-(3-Chloro-benzo[b]thiophen-2-yl)-N-(4-fluoro-3-trifluoromethyl-benzyl)-4-chloro-pyridin-3-ylsulfonamide] | 0.029 |  | 
2 | O=S(=O)(c1ccc(Cl)nc1)N(Cc1ccc(F)c(C(F)(F)F)c1)c1sc2ccccc2c1Cl [Compound 338] |  | 95 | 
3 | CCCCN(c1sc2ccccc2c1C(C)=O)S(=O)(=O)c1ccc(C(=O)OC)cc1 [Compound 339, N-(3-Acetyl-benzo[b]thiophen-2-yl)-N-(butyl)-4-carbomethoxy-benzenesulfonamide] | 0.0262 | 94 | 
4 | CCCCN(c1cc2ccccc2s1)S(=O)(=O)c1cccnc1 [Compound 340, N-(Benzo[b]thiophen-2-yl)-N-(butyl)-pyridin-3-yl-sulfonamide] |  | 52 | 
5 | CCCCN(c1sc2ccccc2c1C(C)(C)O)S(=O)(=O)c1ccc(C(C)(C)O)cc1 [Compound 341, N-(Butyl)-N-(3-(1-hydroxy-1-methyl-ethyl)-benzo[b]thiophen-2-yl)-4-(2-1-hydroxy-1-methyl-ethyl)-benzenesulfonamide] | 0.014 |  | 96
6 | CCCCN(c1sc2ccccc2c1C(C)=O)S(=O)(=O)c1ccc(C(=O)O)cc1 [Compound 342, N-(3-Acetyl-benzo[b]thiophen-2-yl)-N-(butyl)-4-carboxy-benzenesulfonamide] | 0.013 | 100 | 
7 | CCCCN(c1sc2ccccc2c1C(C)(C)O)S(=O)(=O)c1ccc(C(=O)O)cc1 [Compound 343, N-(Butyl)-N-(3-(1-hydroxy-1-methyl-ethyl)-benzo[b]thiophen-2-yl)-4-carboxy-benzenesulfonamide] | 0.019 | 98 | 
8 | CCCCN(c1sc2ccccc2c1C(C)(C)O)S(=O)(=O)c1ccc(C(C)=O)cc1 [Compound 344, N-(Butyl)-N-(3-(1-hydroxy-1-methyl-ethyl)-benzo[b]thiophen-2-yl)-4-acetyl-benzenesulfonamide] | 0.0127 | 99 | 
9 | CCCCN(c1sc2ccccc2c1Br)S(=O)(=O)c1cccnc1 [Compound 345, N-(3-Bromobenzo[b]thiophen-2-yl)-N-(butyl)-pyridin-3-yl-sulfonamide] | 0.0265 | 99 | 
10 | CCS(=O)(=O)N(Cc1ccc(F)c(C(F)(F)F)c1)c1sc2ccccc2c1CN(C)C [Compound 346, N-(3-Dimethylaminomethyl-benzo[b]thiophen-2-yl)-N-(4-fluoro-3-trifluoromethyl-benzyl)-ethanesulfonamide] | 0.0438 | 95 | 
11 | CCS(=O)(=O)N(Cc1ccc(F)c(C(F)(F)F)c1)c1sc2ccccc2c1CNC [Compound 347, N-(4-Fluoro-3-trifluoromethyl-benzyl)-N-(3-methylaminomethyl-benzo[b]thiophen-2-yl)-ethanesulfonamide] | 0.0571 | 95 | 
12 | CCCNCc1c(N(Cc2ccc(F)c(C(F)(F)F)c2)S(=O)(=O)CC)sc2ccccc12 [Compound 348, N-(4-Fluoro-3-trifluoromethyl-benzyl)-N-(3-propylaminomethyl-benzo[b]thiophen-2-yl)-ethanesulfonamide] |  | 60 | 
13 | CCS(=O)(=O)N(Cc1ccc(F)c(C(F)(F)F)c1)c1sc2ccccc2c1CN1CCCC1 [Compound 349, N-(4-Fluoro-3-trifluoromethyl-benzyl)-N-(3-pyrrolidin-1-yl-methyl-benzo[b]thiophen-2-yl)-ethanesulfonamide] |  |  | 42
14 | CS(=O)(=O)CS(=O)(=O)N(Cc1ccc(F)c(C(F)(F)F)c1)c1sc2ccccc2c1Br [Compound 350, N-(3-Bromo-benzo[b]thiophen-2-yl)-N-(4-fluoro-3-trifluoromethyl-benzyl)-C-methanesulfonyl-methanesulfonamide] |  | 48 | 
15 | CC(=O)c1ccc(S(=O)(=O)N(CCCC(F)(F)F)c2sc3ccccc3c2C)cc1 [Compound 351, N-(3-Methyl-benzo[b]thiophen-2-yl)-N-(4,4,4-trifluoro-butyl)-4-acetyl-benzenesulfonamide] | 0.0212 | 97 | 
16 | CC(=O)c1ccc(S(=O)(=O)N(Cc2ccc(F)c(C(F)(F)F)c2)c2sc3ccccc3c2C)cc1 [Compound 352, N-(3-Methyl-benzo[b]thiophen-2-yl)-N-(4-fluoro-3-trifluoromethyl-benzyl)-4-acetyl-benzenesulfonamide] | 0.0086 | 96 | 
17 | Cc1nccc(-c2cccc(S(=O)(=O)N(Cc3ccc(F)c(C(F)(F)F)c3)c3sc4ccccc4c3C)c2)n1 [Compound 353, N-(3-Methyl-benzo[b]thiophen-2-yl)-N-(4-fluoro-3-trifluoromethyl-benzyl)-3-(2-methyl-pyrimidin-4-yl)-benzenesulfonamide] | 0.0094 | 98 | 
18 | Cc1nccc(-c2cccc(S(=O)(=O)N(CCCC(F)(F)F)c3sc4ccccc4c3C)c2)n1 [Compound 354, N-(3-Methyl-benzo[b]thiophen-2-yl)-N-(4,4,4-trifluoro-butyl)-3-(2-methyl-pyrimidin-4-yl)-benzenesulfonamide] | 0.106 | 87 | 
19 | COc1ccc(S(=O)(=O)N(Cc2ccc(F)c(C(F)(F)F)c2)c2sc3ccccc3c2C)c2cccnc12 [Compound 355] | 0.0296 |  | 92
20 | Cc1c(N(CCOC(C)(C)C)S(C)(=O)=O)sc2ccccc12 [Compound 366, N-(2-tert-Butoxy-ethyl)-N-(3-methyl-benzo[b]thiophen-2-yl)-methanesulfonamide] | 0.04 | 85 | 

The next lines start with results.

Row | IC50 [µM] | inhibition at 0.2 µM [%] | SMILES | % Inh @ 0.2 (μM) [%]
21 | 0.0416 | 93 | COc1ccc(S(=O)(=O)N(CCCC(F)(F)F)c2sc3ccccc3c2C)c2cccnc12 [Compound 356, N-(3-Methyl-benzo[b]thiophen-2-yl)-N-(4,4,4-trifluoro-butyl)-8-methoxyquinolin-5-ylsulfonamide] | 
22 | 0.019 | 95 | COc1ncccc1S(=O)(=O)N(Cc1ccc(F)c(C(F)(F)F)c1)c1sc2ccccc2c1C [Compound 357, N-(3-Methyl-benzo[b]thiophen-2-yl)-N-(4-fluoro-3-trifluoromethyl-benzyl)-2-methoxy-pyridin-3-ylsulfonamide] | 
23 | 0.012 | 92 | Cc1c(N(Cc2ccc(F)c(C(F)(F)F)c2)S(=O)(=O)c2cccnc2N(C)C)sc2ccccc12 [Compound 358, N-(3-Methyl-benzo[b]thiophen-2-yl)-N-(4-fluoro-3-trifluoromethyl-benzyl)-2-dimethylamino-pyridin-3-yl-sulfonamide] | 
24 | 0.017 | 93 | COc1ccc(S(=O)(=O)N(Cc2ccc(F)c(C(F)(F)F)c2)c2sc3ccccc3c2C)cn1 [Compound 359] | 
25 | 0.041 |  | Cc1c(N(Cc2ccc(F)c(C(F)(F)F)c2)S(=O)(=O)c2cnccc2N(C)C)sc2ccccc12 [Compound 360, N-(3-Methyl-benzo[b]thiophen-2-yl)-N-(4-fluoro-3-trifluoromethyl-benzyl)-4-dimethylamino-pyridin-3-yl-sulfonamide] | 
26 |  | 92 | Cc1c(N(Cc2ccc(F)c(C(F)(F)F)c2)S(=O)(=O)c2ccc(N(C)C)nc2)sc2ccccc12 [Compound 360] | 
27 |  | 67 | CS(=O)(=O)CS(=O)(=O)N(Cc1ccc(F)c(C(F)(F)F)c1)c1cc2ccccc2s1 [Compound 362, N-(Benzo[b]thiophen-2-yl)-N-(4-fluoro-3-trifluoromethyl-benzyl)-C-methanesulfonyl-methanesulfonamide] | 
28 | 0.051 | 84 | CCCCN(c1sc2ccccc2c1C)S(C)(=O)=O [Compound 363, N-(Butyl)-N-(3-methyl-benzo[b]thiophen-2-yl)-methanesulfonamide] | 
29 | 0.044 | 77 | Cc1c(N(CCC(F)(F)F)S(C)(=O)=O)sc2ccccc12 [Compound 364, N-(3-Methyl-benzo[b]thiophen-2-yl)-N-(3,3,3-trifluoro-propyl)-methanesulfonamide] | 
30 |  | 38 | Cc1c(N(CC2CC2)S(C)(=O)=O)sc2ccccc12 [Compound 365, N-(Cyclopropylmethyl)-N-(3-methyl-benzo[b]thiophen-2-yl)-methanesulfonamide] | 
31 | 0.01 | 91 | Cc1c(N(Cc2ccc(F)c(F)c2)S(C)(=O)=O)sc2ccccc12 [Compound 367, N-(3,4-Difluoro-benzyl)-N-(3-methyl-benzo[b]thiophen-2-yl)-methanesulfonamide] | 
32 | 0.018 | 96 | Cc1c(N(Cc2ccc(F)c(C(F)(F)F)c2)S(C)(=O)=O)sc2ccccc12 [Compound 368, N-(4-Fluoro-3-trifluoromethyl-benzyl)-N-(3-methyl-benzo[b]thiophen-2-yl)-methanesulfonamide] | 
33 | 0.018 | 98 | Cc1c(N(Cc2ccc(OC(F)(F)F)cc2)S(C)(=O)=O)sc2ccccc12 [Compound 369, N-(3-Methyl-benzo[b]thiophen-2-yl)-N-(4-trifluoromethoxy-benzyl)-methanesulfonamide] | 
34 |  | 29 | N#Cc1cccc(S(=O)(=O)N(Cc2ccc(F)c(C(F)(F)F)c2)c2cc3ccccc3s2)c1 [Compound 370, N-(Benzo[b]thiophen-2-yl)-N-(4-fluoro-3-trifluoromethyl-benzyl)-3-cyano-benzenesulfonamide] | 
35 | 0.009 | 94 | Cc1c(N(CCCC(F)(F)F)S(=O)(=O)c2ccc(C(C)(C)O)cc2)sc2ccccc12 [Compound 371, N-(3-Methyl-benzo[b]thiophen-2-yl)-N-(4,4,4-trifluoro-butyl)-4-(1-hydroxy-1-methyl-ethyl)-benzenesulfonamide] | 
